From US7754696B2 (Pharmaceutical Solutions, Inc., priority 2001, dated 2010)

How the values were obtained:
[1] = cited from earlier work
[2] = room temperature; cited from earlier work
[3] = test system: foul mites; assay: Treatment of a poultry flock via drinking water, mites; format: in vivo; conditions: 10000 head flock, 5 percent concentration mixture in water, administered over 12 hours, 180 ug per kg
Protocol: (§1) 400 cc of a 5 percent concentration mixture was added to 5 gallons of water to form a stock solution that was administered over 12 hours at a dose of 180 ug per kg.

[4] = test system: round worms; assay: Treatment of swine via drinking water, fecal examinations pre and post treatment; format: in vivo; conditions: 1000 100-pound pigs, 5 percent solution in 10 gallons of water stock solution
Protocol: This is 20 mg per 100 pounds or 200 ug per pound.

[5] = cited from earlier work; remark: listed apart in the source
[6] = test system: round worms; assay: Treatment of a poultry flock via drinking water, round worms; format: in vivo; conditions: 10000 head flock, 5 percent concentration mixture in water, administered over 12 hours, 180 ug per kg
Protocol: as §1

With `CC[C@H](C)[C@H]1O[C@]2(CC[C@@H]1C)C[C@@H]1C[C@@H](C/C=C(\C)C(O[C@H]3C[C@H](OC)[C@@H](O[C@H]4C[C@H](OC)[C@@H](O)[C@H](C)O4)[C@H](C)O3)[C@@H](C)/C=C/C=C3\CO[C@@H]4[C@H](O)C(C)=C[C@@H](C(=O)O1)[C@]34O)O2` (stereo partly drawn) [Ivermectin, 22,23 dihydroavermectin Bla] as the molecule, how does the “bound to plasma proteins” value [1] read?
Its value is “about 93%”.

What about the solubility in water [2] of the same molecule?
Its solubility in water is “about 0.005 mg per ml”.

And the “elimination of mites from the birds” value [3]?
The value was 100%.

And the “reduction in round worms based on fecal examinations” value [4]?
The value was 98%.

What about the “apparent volume of distribution” value ([5]; adults) of the same molecule?
Its value is “about 47 liters”.

What about the systemic clearance ([5]; adults) of the same molecule?
The systemic clearance was “about 1.2 liters/hour”.

What about the terminal half-life ([5]; adults) of the same molecule?
The terminal half-life was “about 27 hours”.

And the “time to peak levels in plasma” value ([5]; human beings, oral administration)?
Its value is no more than 4 h.

And the “elimination of worms from the birds” value [6]?
The value was 100%.
